Reference: publication PMC8951032, “Study of Biological Activities and ADMET-Related Properties of Novel Chlorinated N-arylcinnamamides” (International Journal of Molecular Sciences, 2022)
In brackets after ≈: the same amount, converted by molar mass. Like-named read-outs stand apart in the source and are kept apart here.

What was measured:
[1] = Lipophilicity determination by RP-HPLC (log k, log D); type: physicochemical; details: for log k: MeOH 72%/H2O 28%; for log D6.5: MeOH 72%/acetate buffered saline pH 6.5; for log D7.4: MeOH 72%/acetate buffered saline pH 7.4
Method: In addition to the mentioned ADME profile, it is responsible for interactions with biological targets. Lipophilicity is recognized as one of the most important parameters influencing ADME and bioactivity and is also part, e.g., of Lipinski’s Rule of Five (Ro5). This thermodynamic parameter describing the molecule’s affinity for an aqueous or relatively lipophilic environment can be characterized by the logarithm of the partition coefficient (log P). In this study, lipophilicity was measured by reversed-phase high-performance liquid chromatography (RP-HPLC) under isocratic conditions with methanol as the organic modifier in the aqueous mobile phase and the logarithm of the capacity factor k was calculated, which is used as the lipophilicity index converted to the log P scale. In addition to the log k values, the logarithm of the distribution coefficient DpH at pH 6.5 and 7.4 was determined to clarify the behavior of the compounds under physiological conditions and possible ionization. Instead of water, a buffer of suitable pH was used as part of the mobile phase. In addition to the above-mentioned experimental methods, commercially available ChemBioDraw Ultra 13.0 and ACD/Percepta ver. 2012 programs were used to calculate the lipophilicity values of all prepared compounds.
A HPLC separation module Waters Alliance 2695 XE equipped with a Waters Dual Absorbance Detector 2486 (Waters Corp., Milford, MA, USA) was used. A chromatographic column Symmetry® C18 5 μm, 4.6 × 250 mm, Part No. W21751W016 (Waters Corp., Milford, MA, USA) was used. The HPLC separation process was monitored by Empower® 3 Chromatography Manager Software (Waters Corp.). Isocratic elution by a mixture of MeOH p.a. (72%) and H2O-HPLC Mili-Q grade (28%) as a mobile phase was used for the determination of capacity factor k. Isocratic elution by a mixture of MeOH p.a. (72%) and acetate buffered saline (pH 7.4 and pH 6.5) (28%) as a mobile phase was used for the determination of distribution coefficient expressed as D7.4 and D6.5. The total flow of the column was 1.0 mL/min, injection 20 μL, column temperature 40 °C, and sample temperature 10 °C. The detection wavelength of 210 nm was chosen. A KI methanolic solution was used for the determination of the dead times (tD). Retention times (tR) were measured in minutes. The capacity factors k were calculated according to the formula k = (tR − tD)/tD, where tR is the retention time of the solute, and tD is the dead time obtained using an unretained analyte. The distribution coefficients DpH were calculated according to the formula DpH = (tR − tD)/tD. Each experiment was repeated three times.

[2] = test system: Mycobacterium smegmatis ATCC 700084; assay: In vitro antimycobacterial activity, broth dilution MIC; type: cell-based; details: Mycolicibacterium smegmatis
[3] = test system: Mycobacterium marinum CAMP 5644; assay: as above; type: cell-based; details: CAMP5644, 504 h

SMILES | log k [1] | log D6.5 [1] | log D7.4 [1] | MIC ([2]; ATCC700084, 72 h, M. smegmatis ATCC 700084, three days, read-out: MIC MS) [M] | MIC ([2]; ATCC700084, M. smegmatis ATCC 700084, read-out: log(1/MIC [M]) MS (converted)) [M] | MIC ([3]; M. marinum CAMP 5644, 21 days, read-out: MIC MM) [M] | MIC ([3]; M. marinum CAMP 5644, read-out: log(1/MIC [M]) MM (converted)) [M]
O=C(/C=C/c1ccc(Cl)cc1)Nc1ccccc1 [1a, (2E)-3-(4-Chlorophenyl)-N-phenylprop-2-enamide] | 0.4490 | 0.4428 | 0.4515 |  |  |  | 
O=C(/C=C/c1ccc(Cl)cc1)Nc1ccccc1F [1b, (2E)-3-(4-Chlorophenyl)-N-(2-fluorophenyl)prop-2-enamide] | 0.6459 | 0.5908 | 0.5965 |  |  |  | 
O=C(/C=C/c1ccc(Cl)cc1)Nc1cccc(F)c1 [1c, (2E)-3-(4-Chlorophenyl)-N-(3-fluorophenyl)prop-2-enamide] | 0.7859 | 0.7296 | 0.7325 |  |  |  | 
O=C(/C=C/c1ccc(Cl)cc1)Nc1ccc(F)cc1 [1d, (2E)-3-(4-Chlorophenyl)-N-(4-fluorophenyl)prop-2-enamide] | 0.7808 | 0.7252 | 0.7290 |  |  |  | 
O=C(/C=C/c1ccc(Cl)cc1)Nc1ccccc1Cl [1e, (2E)-N-(2-Chlorophenyl)-3-(4-chlorophenyl)prop-2-enamide] | 0.5241 | 0.4650 | 0.4724 |  |  |  | 
O=C(/C=C/c1ccc(Cl)cc1)Nc1cccc(Cl)c1 [1f, (2E)-N-(3-Chlorophenyl)-3-(4-chlorophenyl)prop-2-enamide] | 0.6192 | 0.5603 | 0.5666 |  |  |  | 
O=C(/C=C/c1ccc(Cl)cc1)Nc1ccc(Cl)cc1 [1g, (2E)-N,3-bis(4-Chlorophenyl)prop-2-enamide] | 0.5598 | 0.5012 | 0.5065 |  |  |  | 
O=C(/C=C/c1ccc(Cl)cc1)Nc1ccccc1C(F)(F)F [1h, (2E)-3-(4-Chlorophenyl)-N-[2-(trifluoromethyl)phenyl]prop-2-enamide] | 0.5506 | 0.4938 | 0.5010 |  |  |  | 
O=C(/C=C/c1ccc(Cl)cc1)Nc1ccc(C(F)(F)F)cc1 [1j, (2E)-3-(4-Chlorophenyl)-N-[4-(trifluoromethyl)phenyl]prop-2-enamide] | 0.9078 | 0.8541 | 0.8560 |  |  |  | 
O=C(/C=C/c1ccc(Cl)cc1)Nc1ccc(OC(F)(F)F)cc1 [1k, (2E)-3-(4-Chlorophenyl)-N-[4-(trifluoromethoxy)phenyl]prop-2-enamide] | 0.8759 | 0.8702 | 0.8754 |  |  |  | 
O=C(/C=C/c1ccc(Cl)cc1)Nc1ccc(F)cc1F [1l, (2E)-3-(4-Chlorophenyl)-N-(2,4-difluorophenyl)prop-2-enamide] | 0.5746 | 0.5172 | 0.5223 |  |  |  | 
O=C(/C=C/c1ccc(Cl)cc1)Nc1cc(F)cc(F)c1 [1m, (2E)-3-(4-Chlorophenyl)-N-(3,5-difluorophenyl)prop-2-enamide] | 0.8054 | 0.7502 | 0.7537 |  |  |  | 
O=C(/C=C/c1ccc(Cl)cc1)Nc1ccc(Cl)cc1Cl [1n, (2E)-3-(4-Chlorophenyl)-N-(2,4-dichlorophenyl)prop-2-enamide] | 0.9665 | 0.9141 | 0.9170 |  |  |  | 
O=C(/C=C/c1ccc(Cl)cc1)Nc1cc(Cl)ccc1Cl [1o, (2E)-3-(4-Chlorophenyl)-N-(2,5-dichlorophenyl)prop-2-enamide] | 0.9507 | 0.8986 | 0.9010 |  |  |  | 
O=C(/C=C/c1ccc(Cl)c(Cl)c1)Nc1ccccc1F [2b, (2E)-N-(2-Fluorophenyl)-3-(3,4-dichlorophenyl)prop-2-enamide] | 0.7764 | 0.8203 | 0.8019 |  |  |  | 
O=C(/C=C/c1ccc(Cl)c(Cl)c1)Nc1cccc(F)c1 [2c, (2E)-N-(3-Fluorophenyl)-3-(3,4-dichlorophenyl)prop-2-enamide] | 0.9071 | 0.9453 | 0.8735 |  |  |  | 
O=C(/C=C/c1ccc(Cl)c(Cl)c1)Nc1ccc(F)cc1 [2d, (2E)-N-(4-Fluorophenyl)-3-(3,4-dichlorophenyl)prop-2-enamide] | 0.9009 | 0.9381 | 0.8660 |  |  |  | 
O=C(/C=C/c1ccc(Cl)c(Cl)c1)Nc1ccccc1Cl [2e, (2E)-N-(2-Chlorophenyl)-3-(3,4-dichlorophenyl)prop-2-enamide] | 0.6488 | 0.6925 | 0.6739 |  |  |  | 
O=C(/C=C/c1ccc(Cl)c(Cl)c1)Nc1cccc(Cl)c1 [2f, (2E)-N-(3-Chlorophenyl)-3-(3,4-dichlorophenyl)prop-2-enamide] | 0.7404 | 0.7816 | 0.7616 |  |  |  | 
O=C(/C=C/c1ccc(Cl)c(Cl)c1)Nc1ccc(Cl)cc1 [2g, (2E)-N-(4-Chlorophenyl)-3-(3,4-dichlorophenyl)prop-2-enamide] | 0.6786 | 0.7224 | 0.7021 |  |  |  | 
O=C(/C=C/c1ccc(Cl)c(Cl)c1)Nc1ccccc1C(F)(F)F [2h, (2E)-3-(3,4-Dichlorophenyl)-N-[2-(trifluoromethyl)phenyl]prop-2-enamide] | 0.6836 | 0.7295 | 0.6526 |  |  |  | 
O=C(/C=C/c1ccc(Cl)c(Cl)c1)Nc1ccc(F)cc1F [2l, (2E)-3-(3,4-Dichlorophenyl)-N-(2,4-difluorophenyl)prop-2-enamide] | 0.6989 | 0.7094 | 0.6632 |  |  |  | 
O=C(/C=C/c1ccc(Cl)c(Cl)c1)Nc1cc(F)cc(F)c1 [2m, (2E)-3-(3,4-Dichlorophenyl)-N-(3,5-difluorophenyl)prop-2-enamide] | 0.9298 | 0.9345 | 0.8882 |  |  |  | 
O=C(/C=C/c1ccc(Cl)c(Cl)c1)Nc1ccc(Cl)cc1Cl [2n, (2E)-N-(2,4-Dichlorophenyl)-3-(3,4-dichlorophenyl)prop-2-enamide] | 1.0932 | 1.0985 | 1.0565 |  |  |  | 
O=C(/C=C/c1ccc(Cl)c(Cl)c1)Nc1cc(Cl)ccc1Cl [2o, (2E)-N-(2,5-Dichlorophenyl)-3-(3,4-dichlorophenyl)prop-2-enamide] | 1.0840 | 1.0887 | 1.0474 |  |  |  | 
O=C(/C=C/c1ccc(Cl)c(Cl)c1)Nc1cc(Cl)cc(Cl)c1 [2p, (2E)-N-(3,5-Dichlorophenyl)-3-(3,4-dichlorophenyl)prop-2-enamide] | 1.3043 | 1.3336 | 1.3080 |  |  |  | 
NNC(=O)c1ccncc1 [INH, isoniazid, reference compound] |  |  |  | 0.000117 (≈ 16 µg/mL) | 0.000117 (≈ 16.1 µg/mL) | 0.000467 (≈ 64 µg/mL) | 0.000468 (≈ 64.1 µg/mL)
